Here are results for one compound from US20220354957A1, “PEPTIDES TARGETING MACROPHAGES, AND CONJUGATES, COMPOSITIONS, AND USES THEREOF” (Twinpig Biolab, Inc., priority 2021, published 2022).

Molecules are shown by their SMILES.

Usually inhibition stands for how much of the control response was suppressed. As a reminder, the IC50 is the point on the concentration scale where inhibition reaches its midpoint.

Common to all, as to type: cell-based, human
Series [1] in a line: Cytotoxicity in in vitro sepsis model (CCK-8). Particulars: compared to control, read-out: inhibition (cytotoxic effect) in LPS-M1 macrophages. As to the method: (§1) THP-1 cells (1×10^4 cells/well) were differentiated into macrophages with 100 nM PMA (MO) for 24 h and polarized into classical M1 macrophages by treatment of IFN-γ (20 ng/ml) and LPS (100 ng/ml) and LPS-stimulated macrophages (LPS-M1) were induced by LPS (1 m/ml) treatment for 24h. Cells were treated with 1.5 μM of A26K for 1 hour and further incubated in RPMI1640 growth medium for 24 hours. Cell viability was analyzed using the CCK-8 assay. CCK-8 reagent was added to each well and incubated for 1.5-2 hours. Absorbance was measured at 450 nm with a microplate reader.

The subject of another series is LPS-M1 macrophages. Briefly: Expression of pro-inflammatory genes in in vitro sepsis model (real-time quantitative PCR). Particulars: 1.5 μM for 1 h, compared to LPS-M1 macrophages. As to the method: THP-1 cells (2×10^5 cells/well) were differentiated into macrophages with 100 nM PMA (MO) for 24h and polarized into classical M1 macrophages by treatment of IFN-γ (20 ng/ml) and LPS (100 ng/ml) and LPS-M1 macrophages were induced by LPS (1 m/ml) treatment for 2 h. Polarized cells were treated with 1.5 μM of A26K for 1 hour and further incubated in RPMI1640 growth medium for 24 hours. Expression levels of pro-inflammatory genes (IL-8, TNF-α, NF-kB, IL-1(3 and CXCL10) were quantified by real-time quantitative PCR.

A short description of series [2]: Cell viability test (CCK-8) of dKLA-conjugated alanine-substituted peptides. The procedure:
(§2) THP-1 monocytes were differentiated into macrophages (M0) by 24 h incubation with 100 nM phorbol 12-myristate 13-acetate (PMA, Sigma) followed by 24 h incubation in RPMI medium (Invitrogen). Macrophages were polarized in M1 macrophages (M1) by incubation with 20 ng/ml of IFN-γ (Prospec) and 100ng/m1 of LPS (Sigma). Macrophage M2 polarization(M2) was obtained by incubation with 20 ng/ml of interleukin (IL) 4 (Prospec) and 20 ng/ml of interleukin 13 (Pro spec).
(§3) Polarized cells were treated with 1.5 μM MpepK, A12K, A14K, A17K, A18K, A22K, A25K or A26K peptides for 1 hour and further incubated in RPMI1640 growth medium for 24 hours. Cell viability was analyzed using the CCK-8 assay: CCK-8 reagent (Enzo Life Sciences) was added to each well; incubation was continued for 2 hours, and absorbance was measured at 450 nm with a microplate reader (Molecular Devices).
as §1

The next series concerns M1 macrophages. The description is as above. Particulars: 1.5 μM, 1 hour then 24 hours, CCK-8, compared to control M1 macrophage. The procedure: as §2, §3, §1

For `CC[C@H](C)[C@H](NC(=O)[C@H](CC(C)C)NC(=O)[C@H](C)NC(=O)[C@@H]1CCCN1C(=O)[C@H](CC(C)C)NC(=O)CNC(=O)[C@@H](NC(=O)[C@@H](NC(=O)[C@H](CC(C)C)NC(=O)[C@@H](NC(C)=O)C(C)C)[C@@H](C)O)[C@@H](C)O)C(=O)N[C@@H](CO)C(=O)N[C@@H](Cc1c[nH]c2ccccc12)C(=O)N[C@H](C(=O)N[C@@H](CCCCN)C(=O)N[C@@H](CCCNC(=N)N)C(=O)N[C@@H](CCCCN)C(=O)N[C@@H](CCCNC(=N)N)C(=O)N[C@@H](CCC(N)=O)C(=O)N[C@@H](C)C(=O)NCC(=O)NCC(=O)NCC(=O)NCC(=O)N[C@@H](CO)C(=O)N[C@H](CCCCN)C(=O)N[C@H](CC(C)C)C(=O)N[C@H](C)C(=O)N[C@H](CCCCN)C(=O)N[C@H](CC(C)C)C(=O)N[C@H](C)C(=O)N[C@H](CCCCN)C(=O)N[C@H](CCCCN)C(=O)N[C@H](CC(C)C)C(=O)N[C@H](C)C(=O)N[C@H](CCCCN)C(=O)N[C@H](CC(C)C)C(=O)N[C@H](C)C(=O)N[C@H](CCCCN)C(=O)O)[C@@H](C)CC` [A26K], the inhibition at 1.5 µM in series [1] turned out to be 37%. For the same compound, the “expression levels of IL8, TNF-α, IL-1β, NF-kB and CXCL10 enhanced by LPS stimulation” value with LPS-M1 macrophages was “significantly inhibited”. Moreover, the cytotoxicity in series [2] (1.5 μM, compared to control, read-out: inhibition of viability in M1 macrophages) is 53%. In series [2] (0.01-10 μM, read-out: cytotoxicity IC50 in M1 macrophages), the IC50 stood at 1190 nM. Also, the “cytotoxic effect in M1 macrophages” value in the series on M1 macrophages is reported as “great significant selective cytotoxic effect”.
